Assay results reported in patent US10745408B2, “Biologically active taxane analogs and methods of treatment by oral administration” (Tapestry Pharmaceuticals, Inc., priority 2007, dated 2020).
Where two headings read alike, the source gives them in different places.

What was measured:
KB = experiment: MTS proliferation assay, head/neck KB; format: cell-based; details: Homo sapiens
Experimental: MTS Proliferation Assay (Promega)
Day 1: Cells were plated in appropriate growth medium at 5×10^3 per well in 100 ul in 96 well tissue culture plates, Falcon, one for each drug to be tested. Col 1 was blank; it contained no cells, just medium. The plates were incubated overnight at 37° C., 5% CO2 to allow attachment.
Day 2: Added 120 ul growth medium in wells of 96-well “dilution plates” (one for each drug) and let sit in 37° C. incubator for about 1 hr.
Thawed DMSO drug stocks (usually at 10 mM). Each drug was diluted 6 ul into a tube with 3 ml growth medium, to 20 μM.
Aspirated medium from col 12 of a dilution plate; added 200-300 ul of 20 uM drug to wells of col 12. Made serial dilution down this 96-well plate: for a […] dilution pattern, moved 60 ul from col 12 to col 11, mixed 4-5 times (using 8 place multi-pipettor), moved 60 ul to col 10, etc. stopping at col 3.
Moved 100 ul of medium+drug from dilution plate to a cell plate, i.e. col 1 from drug plate (blank=no cells) to col 1 of cell plate, etc. up to col 12. Col 2 contained cells with no drug. […]
Day 4 or 5: Terminated the assay 48 to 72 hrs after drug addition. […] When the color turned dark in control wells (col 2), and was still light in col 12, the absorbance at 490 nm was read on a plate reader; the results were used to calculate IC50.

[1] = system: U251 human CNS tumor cells (glioblastoma); details: for survivors day 100: QD1, 5, 9; for median day of death and median survival time: intravenous, q4d×3
Text: Tumor Model: Each animal was implanted with one million U251 human CNS tumor cells from an in vitro cell line by ic injection with a 25 gauge needle. The day of tumor implantation (May 24, 2006) was designated as day 0. A sufficient number of mice were implanted so that animals with body weights in a range as narrow as possible were selected for the trial on the day of treatment initiation (day 1 after tumor implantation). Animals were randomly assigned to the treatment groups and individually identified by earmark codes.
A portion of this solution was then diluted with the complete vehicle to achieve the lower dosing concentration of 1.2 mg/mL. […] Temozolomide (Temodar, Schering Corporation) was prepared on each day of injection in Klucel+tween 80 at a concentration of 4 mg/mL. Temozolomide was administered within 5 minutes of formulation on the basis of exact body weight using a volume of 0.2 mL/10 g of body weight.
Data Collection: Animal health surveillance was conducted and mortality data were collected daily. The animals were weighed twice weekly starting with the first day of treatment.
Study Duration: The study was terminated 100 days after tumor implantation. Any animal found moribund or whose body weight dropped below 14 g was euthanized prior to study termination.
Parameters Evaluated: Number of 100-day survivors, median day of death, and the increase in lifespan based on median day of death and expressed as a percentage (% ILS), median survival time and the % ILS based on median survival time.

For `C=C[C@H]1O[C@H]2C[C@H]3OC[C@@]3(OC(C)=O)[C@H]3[C@H](OC(=O)c4ccccc4)[C@]4(C(C)(C)O)CC(OC(=O)[C@H](O)C(CC(C)C)NC(=O)OC(C)(C)C)C(C)=C4[C@H](OC(C)=O)[C@H](O1)[C@]23C` (stereo partly drawn) [S-(1)], the IC50 (KB) was 9.4 nM, the “survivors day 100” value ([1]; S-(1) 12 mg/kg) was 100 = 0) and the “median day of death and median survival time” value ([1]; S-(1) 12 mg/kg/dose) was 14.5 days. For the same molecule, the “survivors day 100” value ([1]; S-(1) 20 mg/kg) was 100 = 0), the “median day of death and median survival time” value ([1]; S-(1) 20 mg/kg/dose) was 16 days and the “effect against the U251 human CNS tumor cells (in words)” value ([1]; monotherapy or combination as dosed in the study) was “moderate effect”.
